According to patent US20210038515A1 (Azurity Pharmaceuticals, Inc., priority 2014, published 2021):

How the values were obtained:
Bacteroides fragilis = assay: Agar dilution test, other anaerobic organisms; format: cell-based; settings: for MIC, AV (average): average of triplicate; for MIC, VAN-1: replicate 1; for MIC, VAN-2: replicate 2; for MIC, VAN-3: replicate 3
[1] = test system: Bifidobacterium adolescentis; assay: Agar dilution test, other anaerobic organisms; format: cell-based; settings: for MIC, AV (average): average of triplicate; for MIC, VAN-1: replicate 1; for MIC, VAN-2: replicate 2; for MIC, VAN-3: replicate 3

CN[C@H](CC(C)C)C(=O)N[C@H]1C(=O)N[C@@H](CC(N)=O)C(=O)N[C@H]2C(=O)N[C@H]3C(=O)N[C@H](C(=O)N[C@H](C(=O)O)c4cc(O)cc(O)c4-c4cc3ccc4O)[C@H](O)c3ccc(c(Cl)c3)Oc3cc2cc(c3O[C@@H]2O[C@H](CO)[C@@H](O)[C@H](O)[C@H]2O[C@H]2C[C@](C)(N)[C@H](O)[C@H](C)O2)Oc2ccc(cc2Cl)[C@H]1O.Cl [Sigma]
MIC, AV (average) (Bacteroides fragilis; B. fragilis RMA 26978): >16 µg/mL
MIC, VAN-1 (Bacteroides fragilis; B. fragilis RMA 26978): >16 µg/mL
MIC, VAN-2 (Bacteroides fragilis; B. fragilis RMA 26978): >16 µg/mL
MIC, VAN-3 (Bacteroides fragilis; B. fragilis RMA 26978): >16 µg/mL
MIC, AV (average) (Bacteroides fragilis; B. fragilis RMA 26979): >16 µg/mL
MIC, VAN-1 (Bacteroides fragilis; B. fragilis RMA 26979): >16 µg/mL
MIC, VAN-2 (Bacteroides fragilis; B. fragilis RMA 26979): >16 µg/mL
MIC, VAN-3 (Bacteroides fragilis; B. fragilis RMA 26979): >16 µg/mL
MIC, AV (average) (Bacteroides fragilis; B. fragilis RMA 26980): >16 µg/mL
MIC, VAN-1 (Bacteroides fragilis; B. fragilis RMA 26980): >16 µg/mL
MIC, VAN-2 (Bacteroides fragilis; B. fragilis RMA 26980): >16 µg/mL
MIC, VAN-3 (Bacteroides fragilis; B. fragilis RMA 26980): >16 µg/mL
MIC, AV (average) (Bacteroides fragilis; B. fragilis RMA 26981): >16 µg/mL
MIC, VAN-1 (Bacteroides fragilis; B. fragilis RMA 26981): >16 µg/mL
MIC, VAN-2 (Bacteroides fragilis; B. fragilis RMA 26981): >16 µg/mL
MIC, VAN-3 (Bacteroides fragilis; B. fragilis RMA 26981): >16 µg/mL
MIC, AV (average) (Bacteroides fragilis; B. fragilis RMA 26982): >16 µg/mL
MIC, VAN-1 (Bacteroides fragilis; B. fragilis RMA 26982): >16 µg/mL
MIC, VAN-2 (Bacteroides fragilis; B. fragilis RMA 26982): >16 µg/mL
MIC, VAN-3 (Bacteroides fragilis; B. fragilis RMA 26982): >16 µg/mL
MIC, AV (average) ([1]; Bif. adolescentis RMA 21317): 1 µg/mL
MIC, VAN-1 ([1]; Bif. adolescentis RMA 21317): 1 µg/mL
MIC, VAN-2 ([1]; Bif. adolescentis RMA 21317): 1 µg/mL
MIC, VAN-3 ([1]; Bif. adolescentis RMA 21317): 1 µg/mL
MIC, AV (average) ([1]; Bif. adolescentis RMA 21531): 3 µg/mL
MIC, VAN-1 ([1]; Bif. adolescentis RMA 21531): 0.5 µg/mL
MIC, VAN-2 ([1]; Bif. adolescentis RMA 21531): 1 µg/mL
MIC, VAN-3 ([1]; Bif. adolescentis RMA 21531): 1 µg/mL
MIC, AV (average) ([1]; Bif. adolescentis RMA 21551): 1 µg/mL
MIC, VAN-1 ([1]; Bif. adolescentis RMA 21551): 1 µg/mL
MIC, VAN-2 ([1]; Bif. adolescentis RMA 21551): 1 µg/mL
MIC, VAN-3 ([1]; Bif. adolescentis RMA 21551): 1 µg/mL
MIC, AV (average) ([1]; Bif. adolescentis RMA 21680): 1 µg/mL
MIC, VAN-1 ([1]; Bif. adolescentis RMA 21680): 1 µg/mL
MIC, VAN-2 ([1]; Bif. adolescentis RMA 21680): 1 µg/mL
MIC, VAN-3 ([1]; Bif. adolescentis RMA 21680): 1 µg/mL
MIC, AV (average) ([1]; Bif. adolescentis RMA 21703): 1 µg/mL
MIC, VAN-1 ([1]; Bif. adolescentis RMA 21703): 1 µg/mL
MIC, VAN-2 ([1]; Bif. adolescentis RMA 21703): 1 µg/mL
MIC, VAN-3 ([1]; Bif. adolescentis RMA 21703): 1 µg/mL
